Measurements taken from US20220304978A1, “INHIBITING MESANGIAL CELL ACTIVATION” (Chinook Therapeutics, Inc., priority 2019, published 2022).

Legend:
[1] = system: g-ddY mice; test: UACR (albuminuria) in g-ddY mouse model of IgA nephropathy; format: in vivo
Text: The grouped ddY (g-ddY) mouse is a spontaneous model of early-onset IgA nephropathy characterized by IgA immune complex deposition in the mesangium of the kidney, leading to significant proteinuria, glomerular hypercellularity, mesangioproliferative glomerular lesions, glomerular sclerosis and reduced kidney function, all hallmarks of human IgA nephropathy (J Am Soc Nephrol 23: 1364-1374, 2012). Consistent with human IgA nephropathy, the mesangial IgA deposits in the g-ddY mouse are also accompanied by deposition of IgG and complement C3.

[2] = system: kidney tissue of g-ddY mice; test: Ingenuity Pathway Analysis (IPA) canonical pathways, g-ddY kidney RNA-seq; format: in vivo, mouse; conditions: 30 mg/kg/day
[3] = system: kidney tissue of g-ddY mice; test: Gene Set Enrichment Analysis (GSEA) hallmark gene sets, g-ddY kidney RNA-seq; format: in vivo, mouse; conditions: 30 mg/kg/day
[4] = system: ET-1 stimulated HRMC; test: Hallmark gene set enrichment in ET-1 stimulated HRMC treated with atrasentan; conditions: g-ddY and HRMC model systems; HRMC: atrasentan 1 nM and 25 nM with ET-1
[5] = 20 and 30 mg/kg/day, approximately 5 days

CCCCN(CCCC)C(=O)CN1C[C@H](c2ccc3c(c2)OCO3)[C@@H](C(=O)O)[C@@H]1c1ccc(OC)cc1 [atrasentan, (2R,3R,4S)-4-(1,3-benzodioxol-5-yl)-1-[2-(dibutylamino)-2-oxoethyl]-2-(4-methoxyphenyl)pyrrolidine-3-carboxylic acid]
effect to reduce UACR from baseline compared to the control group ([1]; 10 mg/kg/day): not significant
albuminuria compared to baseline ([1]; 10 mg/kg/day, approximately 5 days): not significantly changed from baseline
effect to reduce UACR from baseline compared to the control group ([1]; 20 mg/kg/day, P=0.0498, un-paired t-test): statistically significant
albuminuria compared to baseline ([1]; 20 mg/kg/day, approximately 5 days, P=0.0593): reduced from baseline to a similar extent
effect to reduce UACR from baseline compared to the control group ([1]; 30 mg/kg/day, P=0.029): statistically significant
albuminuria compared to baseline ([1]; 30 mg/kg/day, approximately 5 days, paired t-test): significantly (P=0.0002, paired two-sided t-test) reduced
albuminuria compared to control g-ddY mice [1, 5]: significantly reduced
albuminuria lowering, reduction from baseline [1, 5]: > 60%
IL-6 signaling [2]: reduced
NF-κB signaling [2]: reduced
PDGF signaling [2]: reduced
cell proliferation associated signaling (mitotic spindle and G2M checkpoint) [3]: reduced
inflammatory response signaling [3]: reduced
expression of hallmark gene sets (negative enrichment scores) [4]: under-expression
